Measured values reported in patent US20250340552A1, “COMPOUNDS, COMPOSITIONS AND METHODS OF TREATING DISORDERS” (HOTSPOT THERAPEUTICS, INC., priority 2022, published 2025).
Where two headings read alike, the source gives them in different places.

Biological target: T1, Cbl-B (Homo sapiens, UniProt Q13191)
T1 construct: MSD-Based Assay for Degradation of Cbl-B in THP-1 Cells; endogenous in cells; host or cells: THP-1 (title) / Jurkat (protocol text)
Experiment: MSD-based assay for degradation of Cbl-B in THP-1 cells
Format: cell-based
Method in brief: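 Reported Dmax bins are A >70%, B 50–70%, C 30–50% and D <30%, from an electrochemiluminescence (MSD) sandwich assay of Cbl-B in cell lysates. THP-1 cells were exposed to compounds for 24 hours before lysis.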

[1] = Cbl-B degradation, Jurkat cells seeded (heading: THP-1 cells), 24 hours incubation, MSD readout
[2] = Cbl-B degradation, Jurkat cells seeded (heading: THP-1 cells), 24 hours incubation, MSD readout, read-out: Dmax

T1 sequence (Q13191 whole entry): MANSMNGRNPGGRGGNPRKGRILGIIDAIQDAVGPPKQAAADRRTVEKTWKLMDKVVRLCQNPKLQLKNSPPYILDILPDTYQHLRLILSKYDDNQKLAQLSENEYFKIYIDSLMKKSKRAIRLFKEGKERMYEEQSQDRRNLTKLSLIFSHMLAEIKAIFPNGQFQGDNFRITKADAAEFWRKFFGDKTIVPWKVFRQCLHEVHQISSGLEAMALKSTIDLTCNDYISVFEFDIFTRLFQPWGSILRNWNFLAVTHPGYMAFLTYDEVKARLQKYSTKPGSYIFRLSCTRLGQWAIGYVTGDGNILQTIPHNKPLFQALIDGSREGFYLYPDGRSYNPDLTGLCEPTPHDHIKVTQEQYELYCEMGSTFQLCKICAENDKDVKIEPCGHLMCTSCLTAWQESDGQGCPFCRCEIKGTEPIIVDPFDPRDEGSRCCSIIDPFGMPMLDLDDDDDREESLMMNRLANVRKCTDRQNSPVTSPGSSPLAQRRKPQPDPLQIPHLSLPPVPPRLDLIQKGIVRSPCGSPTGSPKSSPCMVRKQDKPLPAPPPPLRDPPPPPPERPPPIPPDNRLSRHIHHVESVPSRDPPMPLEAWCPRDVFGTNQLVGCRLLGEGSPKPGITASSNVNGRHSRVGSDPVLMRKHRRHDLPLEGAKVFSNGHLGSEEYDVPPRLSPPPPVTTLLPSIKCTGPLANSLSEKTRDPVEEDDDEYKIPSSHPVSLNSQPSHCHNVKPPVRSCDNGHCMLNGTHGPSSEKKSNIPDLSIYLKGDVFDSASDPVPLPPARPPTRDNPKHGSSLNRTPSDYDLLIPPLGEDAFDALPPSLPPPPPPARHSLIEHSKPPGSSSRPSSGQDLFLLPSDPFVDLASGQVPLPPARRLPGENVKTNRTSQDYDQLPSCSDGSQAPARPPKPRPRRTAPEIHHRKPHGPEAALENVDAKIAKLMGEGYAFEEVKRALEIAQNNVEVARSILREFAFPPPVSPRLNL

Compound | DC50 [1] | Dmax [2] | Dmax (THP-1)
Cn1cnnc1[C@@H](c1cccc(-n2cc3c(C(F)(F)F)cc(CN4CCN(c5ccc(C(=O)N6CCC(C7CCN(c8ccc9c(c8)CN([C@H]8CCC(=O)NC8=O)C9=O)CC7)CC6)cc5)CC4)cn3c2=O)c1)C1CCC1 (single isomer, unassigned) [Compound 210] | < 30 nM | > 70% | 
CN(CCN(C)C(=O)c1ccc(C2CCN(c3ccc4c(c3)CN([C@@H]3CCC(=O)NC3=O)C4=O)CC2)cc1)Cc1cc(C(F)(F)F)c2cn(-c3cccc([C@H](c4nncn4C)C4CCC4)c3)c(=O)n2c1 (single isomer, unassigned) [Compound 211] | > 10000 nM | < 30% | 
CN(CCN(C)C(=O)c1ccc(C2CCN(c3ccc4c(c3)CN([C@H]3CCC(=O)NC3=O)C4=O)CC2)cc1)Cc1cc(C(F)(F)F)c2cn(-c3cccc([C@H](c4nncn4C)C4CCC4)c3)c(=O)n2c1 (single isomer, unassigned) [Compound 212] | > 10000 nM | < 30% | 
Cn1cnnc1[C@@H](c1cccc(-n2cc3c(C(F)(F)F)cc(CN4CCC(OCc5ccc(C6CCN(c7ccc8c(c7)CN([C@@H]7CCC(=O)NC7=O)C8=O)CC6)cc5)CC4)cn3c2=O)c1)C1CCC1 (single isomer, unassigned) [Compound 213] | > 10000 nM | < 30% | 
Cn1cnnc1[C@@H](c1cccc(-n2cc3c(C(F)(F)F)cc(CN4CCC(OCc5ccc(C6CCN(c7ccc8c(c7)CN([C@H]7CCC(=O)NC7=O)C8=O)CC6)cc5)CC4)cn3c2=O)c1)C1CCC1 (single isomer, unassigned) [Compound 214] | 30 to 300 nM | 30 to 50% | 
Cn1cnnc1[C@@H](c1cccc(-n2cc3c(C(F)(F)F)cc(CN4CCC(OCc5ccc(CC6CCN(c7ccc8c(c7)CN([C@@H]7CCC(=O)NC7=O)C8=O)CC6)cc5)CC4)cn3c2=O)c1)C1CCC1 (single isomer, unassigned) [Compound 217] | 300 to 1000 nM | 30 to 50% | 
Cn1cnnc1[C@@H](c1cccc(-n2cc3c(C(F)(F)F)cc(CN4CCC(OCc5ccc(CC6CCN(c7ccc8c(c7)CN([C@H]7CCC(=O)NC7=O)C8=O)CC6)cc5)CC4)cn3c2=O)c1)C1CCC1 (single isomer, unassigned) [Compound 218] | < 30 nM | > 70% | 
Cn1cnnc1CC1(c2cccc(-n3cc4c(C(F)(F)F)cc(CN5CCC(OCCOCc6ccc(CN7CCN(c8ccc9c(c8)CN([C@@H]8CCC(=O)NC8=O)C9=O)CC7)cc6)CC5)cn4c3=O)c2)COC1 (single isomer, unassigned) [Compound 219] | 30 to 300 nM | 50 to 70% | 
Cn1cnnc1CC1(c2cccc(-n3cc4c(C(F)(F)F)cc(CN5CCC(OCCOCc6ccc(CN7CCN(c8ccc9c(c8)CN([C@H]8CCC(=O)NC8=O)C9=O)CC7)cc6)CC5)cn4c3=O)c2)COC1 (single isomer, unassigned) [Compound 220] | < 30 nM | > 70% | 
Cn1cnnc1[C@@H](c1cccc(-n2cc3c(C(F)(F)F)cc(CN4CCC(O[C@@H]5CCCN(C(=O)c6ccc(N7CCN(c8ccc9c(c8)CN([C@@H]8CCC(=O)NC8=O)C9=O)CC7)cc6)C5)CC4)cn3c2=O)c1)C1CCC1 (single isomer, unassigned) [Compound 225] | 1000 to 10000 nM | 30 to 50% | 
Cn1cnnc1[C@@H](c1cccc(-n2cc3c(C(F)(F)F)cc(CN4CCC(O[C@@H]5CCCN(C(=O)c6ccc(N7CCN(c8ccc9c(c8)CN([C@H]8CCC(=O)NC8=O)C9=O)CC7)cc6)C5)CC4)cn3c2=O)c1)C1CCC1 (single isomer, unassigned) [Compound 226] | 30 to 300 nM | > 70% | 
Cn1cnnc1[C@@H](c1cccc(-n2cc3c(C(F)(F)F)cc(CN4CCN(CCc5ccc(C6CCN(c7ccc8c(c7)CN([C@H]7CCC(=O)NC7=O)C8=O)CC6)cc5)CC4)cn3c2=O)c1)C1CCC1 (single isomer, unassigned) [Compound 228] | < 30 nM | > 70% | 
CO[C@H]1C[C@](c2cccc(-n3cc4c(C(F)(F)F)cc(CN5CCC(OCc6ccc(CN7CCN(c8ccc9c(c8)CN([C@@H]8CCC(=O)NC8=O)C9=O)CC7)cc6)CC5)cn4c3=O)c2)(c2nncn2C)C1 (single isomer, unassigned) [Compound 231] | 300 to 1000 nM | 30 to 50% | 
CO[C@H]1C[C@](c2cccc(-n3cc4c(C(F)(F)F)cc(CN5CCC(OCc6ccc(CN7CCN(c8ccc9c(c8)CN([C@H]8CCC(=O)NC8=O)C9=O)CC7)cc6)CC5)cn4c3=O)c2)(c2nncn2C)C1 (single isomer, unassigned) [Compound 232] | < 30 nM | > 70% | 
Cn1cnnc1[C@@H](c1cccc(-n2cc3c(C(F)(F)F)cc(CN4CCC[C@@H](COCc5ccc(CN6CCN(c7ccc8c(c7)CN([C@H]7CCC(=O)NC7=O)C8=O)CC6)cc5)C4)cn3c2=O)c1)C1CCC1 (single isomer, unassigned) [Compound 234] |  |  | > 70%
Cn1cnnc1CC1(c2cccc(-n3cc4c(C(F)(F)F)cc(CN5CCC[C@@H](OCCc6ccc(CN7CCN(c8ccc9c(c8)CN([C@@H]8CCC(=O)NC8=O)C9=O)CC7)cc6)C5)cn4c3=O)c2)COC1 (single isomer, unassigned) [Compound 239] | 30 to 300 nM | 50 to 70% | 

Compound | DC50 [1] | Dmax [2] | Dmax (THP-1)
Cn1cnnc1CC1(c2cccc(-n3cc4c(C(F)(F)F)cc(CN5CCC[C@@H](OCCc6ccc(CN7CCN(c8ccc9c(c8)CN([C@H]8CCC(=O)NC8=O)C9=O)CC7)cc6)C5)cn4c3=O)c2)COC1 (single isomer, unassigned) [Compound 240] | < 30 nM | > 70% | 
Cn1cnnc1CC1(c2cccc(-n3cc4c(C(F)(F)F)cc(CN5CCC(OCc6ccc(C(=O)N7CCN(c8ccc9c(c8)CN([C@@H]8CCC(=O)NC8=O)C9=O)CC7)cc6)CC5)cn4c3=O)c2)COC1 (single isomer, unassigned) [Compound 243] | 30 to 300 nM | > 70% | 
Cn1cnnc1CC1(c2cccc(-n3cc4c(C(F)(F)F)cc(CN5CCC(OCc6ccc(C(=O)N7CCN(c8ccc9c(c8)CN([C@H]8CCC(=O)NC8=O)C9=O)CC7)cc6)CC5)cn4c3=O)c2)COC1 (single isomer, unassigned) [Compound 244] | < 30 nM | > 70% | 
CN(C(=O)c1ccc(CN2CCN(c3ccc4c(c3)CN([C@@H]3CCC(=O)NC3=O)C4=O)CC2)cc1)C1CCN(Cc2cc(C(F)(F)F)c3cn(-c4cccc(C5(Cc6nncn6C)COC5)c4)c(=O)n3c2)CC1 (single isomer, unassigned) [Compound 245] | 300 to 1000 nM | 30 to 50% | 
CN(C(=O)c1ccc(CN2CCN(c3ccc4c(c3)CN([C@H]3CCC(=O)NC3=O)C4=O)CC2)cc1)C1CCN(Cc2cc(C(F)(F)F)c3cn(-c4cccc(C5(Cc6nncn6C)COC5)c4)c(=O)n3c2)CC1 (single isomer, unassigned) [Compound 246] | < 30 nM | > 70% | 
Cn1cnnc1[C@@H](c1cccc(-n2cc3c(C(F)(F)F)cc(CN4CCC(O[C@H]5CCCN(C(=O)c6ccc(N7CCN(c8ccc9c(c8)CN([C@@H]8CCC(=O)NC8=O)C9=O)CC7)cc6)C5)CC4)cn3c2=O)c1)C1CCC1 (single isomer, unassigned) [Compound 247] | 300 to 1000 nM | 30 to 50% | 
Cn1cnnc1[C@@H](c1cccc(-n2cc3c(C(F)(F)F)cc(CN4CCC(O[C@H]5CCCN(C(=O)c6ccc(N7CCN(c8ccc9c(c8)CN([C@H]8CCC(=O)NC8=O)C9=O)CC7)cc6)C5)CC4)cn3c2=O)c1)C1CCC1 (single isomer, unassigned) [Compound 248] | < 30 nM | > 70% | 
Cn1cnnc1CC1(c2cccc(-n3cc4c(C(F)(F)F)cc(CN5CCC(OCc6ccc(N7CCN(c8ccc9c(c8)CN([C@@H]8CCC(=O)NC8=O)C9=O)CC7)cc6)CC5)cn4c3=O)c2)COC1 (single isomer, unassigned) [Compound 249] | 30 to 300 nM | 30 to 50% | 
Cn1cnnc1CC1(c2cccc(-n3cc4c(C(F)(F)F)cc(CN5CCC(OCc6ccc(N7CCN(c8ccc9c(c8)CN([C@H]8CCC(=O)NC8=O)C9=O)CC7)cc6)CC5)cn4c3=O)c2)COC1 (single isomer, unassigned) [Compound 250] | < 30 nM | 50 to 70% | 
Cn1cnnc1[C@@H](c1cccc(-n2cc3c(C(F)(F)F)cc(CN4CCC(OC(=O)N5CCC(CC6CCN(c7ccc8c(c7)CN([C@@H]7CCC(=O)NC7=O)C8=O)CC6)CC5)CC4)cn3c2=O)c1)C1CCC1 (single isomer, unassigned) [Compound 253] | 30 to 300 nM | 50 to 70% | 
Cn1cnnc1[C@@H](c1cccc(-n2cc3c(C(F)(F)F)cc(CN4CCC(OC(=O)N5CCC(CC6CCN(c7ccc8c(c7)CN([C@H]7CCC(=O)NC7=O)C8=O)CC6)CC5)CC4)cn3c2=O)c1)C1CCC1 (single isomer, unassigned) [Compound 254] | < 30 nM | > 70% | 
Cn1cnnc1CC1(c2cccc(-n3cc4c(C(F)(F)F)cc(CN5CCC(CC(=O)N6CCC(CC7CCN(c8ccc9c(c8)CN([C@@H]8CCC(=O)NC8=O)C9=O)CC7)CC6)CC5)cn4c3=O)c2)COC1 (single isomer, unassigned) [Compound 257] | 30 to 300 nM |  | 50 to 70%
Cn1cnnc1CC1(c2cccc(-n3cc4c(C(F)(F)F)cc(CN5CCC(CC(=O)N6CCC(CC7CCN(c8ccc9c(c8)CN([C@H]8CCC(=O)NC8=O)C9=O)CC7)CC6)CC5)cn4c3=O)c2)COC1 (single isomer, unassigned) [Compound 258] | < 30 nM |  | > 70%
Cn1cnnc1CC1(c2cccc(-n3cc4c(C(F)(F)F)cc(CN5CCC(CCN6CCC(CC7CCN(c8ccc9c(c8)CN([C@@H]8CCC(=O)NC8=O)C9=O)CC7)CC6)CC5)cn4c3=O)c2)COC1 (single isomer, unassigned) [Compound 259] | 30 to 300 nM | 50 to 70% | 
Cn1cnnc1CC1(c2cccc(-n3cc4c(C(F)(F)F)cc(CN5CCC[C@@H](OC6CCN(C(=O)c7ccc(N8CCN(c9ccc%10c(c9)CN([C@@H]9CCC(=O)NC9=O)C%10=O)CC8)cc7)CC6)C5)cn4c3=O)c2)COC1 (single isomer, unassigned) [Compound 263] | < 30 nM | > 70% | 
